How the values were obtained:
[1] = Accelerated storage test of aldehyde mixture with additive, 40 ppm Cu (Example 1); format: physicochemical; conditions: after 55° C. 14 days without cap; for Z9-16:Ald: before test 4.3, blank 3.066023; for C16:Acid: before test 6.7, blank 18.84135; for 16:Ald: before test 7.5, blank 6.659339; for Z11-16Ald: before test 69.4, blank 54.83784, in % (unit assumed)
Experimental: To a mixture of aldehydes containing; (Z)-9-hexadecenal, (Z)-11-hexadecenal, hexadecanal, (Z)-11-hexadecen-1-ol, (Z)-11-hexadecenoic acid and 40 ppm Cu was added an additive as indicated in table 1 below. The mixture was thoroughly mixed and heated without cap in an oven at 55° C. for 14 days as an accelerated storage test.

[2] = Accelerated storage test of aldehyde mixture with additive, 10 ppm Cu (Example 2); conditions: after 55° C. 14 days without cap; for C16:Acid: before test 1.05, blank 17.72; for Z9-16:Ald: before test 5.09, blank 3.05; for 16:Ald: before test 8.41, blank 6.60; for Z11-16Ald: before test 75.31, blank 54.31
Experimental: The term “accelerated storage test” as used herein refers to a well known protocol for investigating the stability of a particular composition. The protocol is described in for example the memorandum dated 16 Nov. 2012 from The United States Environmental Protection Agency Washington, D.C. 20460 with the subject title “Accelerated Storage Stability and Corrosion Characteristics Study Protocol”. The protocol evaluates product stability at 54° C.±2° C. for 14 days.

[3] = Storage test of aldehyde mixture containing 4-hydroxy-TEMPO with additive (Example 4); format: physicochemical; conditions: for Heptane / Z11-16:OH / 16:Acid / OH tempo / Z9-16:Ald / 15-1:Ald / 16:Ald / Z11-16:Ald: after 55° C. 14 days without cap; for Heptane: before test 0.04, without additive 0.04; for Z11-16:OH: before test 0.27, without additive 0.06; for 16:Acid: before test 1.05, without additive 6.14; for OH tempo: before test 1.19, without additive 1.11; for Z9-16:Ald: before test 5.09, without additive 3.71; for 15-1:Ald: before test 7.27, without additive 5.83; for 16:Ald: before test 8.41, without additive 6.64; for Z11-16:Ald: before test 75.31, without additive 57.21, in % (unit assumed)
Experimental: To a mixture of aldehydes containing; 4-hydroxy-TEMPO (4-hydroxy-2,2,6,6-tetramethylpiperidin-1-oxyl), (Z)-10-pentenenal, (Z)-9-hexadecenal, (Z)-11-hexadecenal, hexadecanal, (Z)-11-hexadecen-1-ol and (Z)-11-hexadecenoic acid in the composition listed in table 4 below was added up to 1% of an additive in table below. The mixture was thoroughly mixed and heated without cap in an oven at 55° C. for 14 days.

[4] = Storage test of aldehyde mixture containing 4-hydroxy-TEMPO and 10 ppm Copper with additive (Example 3); conditions: for Z11-16:OH / Z10-15:Ald / 16:Acid / Z9-16:Ald / 16:Ald / Z11-16:Ald: after 55 C 14 days without cap; for Z11-16:OH: before test 2.16, blank 1.44; for Z10-15:Ald: before test 2.61, blank 2.72; for 16:Acid: before test 3.01, blank 7.94; for Z9-16:Ald: before test 5.33, blank 3.91; for 16:Ald: before test 8.16, blank 6.48; for Z11-16:Ald: before test 74.98, blank 58.18
Experimental: To a mixture of aldehydes containing; 4-hydroxy-TEMPO (4-hydroxy-2,2,6,6-tetramethylpiperidin-1-oxyl), (Z)-10-pentenenal, (Z)-9-hexadecenal, (Z)-11-hexadecenal, hexadecanal, (Z)-11-hexadecen-1-ol (Z)-11-hexadecenoic acid and 10 ppm Copper in the composition listed in table 3 below was added up to 1% of an additive in table below. The mixture was thoroughly mixed and heated without cap in an oven at 55 C for 14 days.

| SMILES | Z9-16:Ald [1] | C16:Acid [1] | 16:Ald [1] | Z11-16Ald [1] | C16:Acid [2] | Z9-16:Ald [2] | 16:Ald [2] | Z11-16Ald [2] | other results |
| --- | --- | --- | --- | --- | --- | --- | --- | --- | --- |
| Cc1cc(C(C)(C)C)c(O)c(C(C)(C)C)c1 [BHT] | 3.425 | 16.05 | 6.958 | 54.06 | 10.43 | 3.73 | 7.73 | 65.80 |  |
| Cc1ccc(O)c(-n2nc3ccccc3n2)c1 [Tinuvin P] | 3.085 | 19.1541 | 6.634 | 54.35 | 17.66 | 3.07 | 6.57 | 54.01 |  |
| C1COCCN1 [Morpholine] | 2.255 | 12.35 | 4.755 | 40.03 | 12.54 | 3.23 | 6.84 | 57.13 |  |
| OCC(O)CO [Glycerol] | 3.115 | 18.83 | 6.736 | 54.86 | 16.74 | 0.00 | 6.75 | 55.52 |  |
| Sc1nc2ccccc2[nH]1 [2-mercapto-Benzimidazole] |  |  |  |  |  |  |  |  | Heptane [3]: 0.04; Z11-16:OH [3]: 0.00; 16:Acid [3]: 4.23; OH tempo [3]: 1.05; Z9-16:Ald [3]: 3.43; 15-1:Ald [3]: 6.16; 16:Ald [3]: 6.97; Z11-16:Ald [3]: 59.82; OH tempo [4]: 1.11; suppressing acid formation and degradation of the aldehydes ([4]; 55 C 14 days, 10 ppm Copper): particularly efficient at suppressing acid formation and degradation of the aldehydes; Z11-16:OH ([4]; 10 ppm Copper): 1.87; Z10-15:Ald ([4]; 10 ppm Copper): 3.10; 16:Acid ([4]; 10 ppm Copper): 3.80; Z9-16:Ald ([4]; 10 ppm Copper): 4.70; 16:Ald ([4]; 10 ppm Copper): 7.53; Z11-16:Ald ([4]; 10 ppm Copper): 69.33 |
| Cn1ccnc1S [2-mercapto-1-methylimidazole] |  |  |  |  |  |  |  |  | suppressing acid formation and/or degradation of the aldehydes [3]: particularly efficient at suppressing acid formation and/or degradation of the aldehydes; Heptane [3]: 0.04; Z11-16:OH [3]: 0.28; 16:Acid [3]: 1.12; OH tempo [3]: 1.12; Z9-16:Ald [3]: 4.88; 15-1:Ald [3]: 6.65; 16:Ald [3]: 8.22; Z11-16:Ald [3]: 73.41; Z11-16:OH ([4]; 10 ppm Copper): 1.92; Z10-15:Ald ([4]; 10 ppm Copper): 2.88; 16:Acid ([4]; 10 ppm Copper): 2.93; Z9-16:Ald ([4]; 10 ppm Copper): 4.83; 16:Ald ([4]; 10 ppm Copper): 7.82; Z11-16:Ald ([4]; 10 ppm Copper): 72.34 |
| COc1ccc(O)c(C(C)(C)C)c1 [BHA] | 3.364 | 15.55 | 7.158 | 59.48 | 12.64 | 3.46 | 7.33 | 61.54 |  |
| O=S1(=O)CCCC1 [Sulfolane] | 3.077 | 18.34 | 6.666 | 54.91 | 16.92 | 3.08 | 6.60 | 54.29 |  |
| Cc1cc(-n2nc3ccc(Cl)cc3n2)c(O)c(C(C)(C)C)c1 [Sumisorb] | 3.325 | 17.1 | 6.835 | 52.4909 | 15.21 | 3.20 | 6.81 | 56.62 |  |
| C[S+](C)[O-] [DMSO] | 3.061 | 19.17 | 6.722 | 55.24 | 16.74 | 3.10 | 6.68 | 55.41 |  |
| CCCOC(=O)c1cc(O)c(O)c(O)c1 [Propyl Gallate] | 3.464 | 14.55 | 7.376 | 61.55 | 11.32 | 3.83 | 3.81 | 67.75 |  |
